According to US6566073B1, “Materials and methods involving conditional retention domains” (Ariad Gene Therapeutics, Inc., priority 1998, dated 2003):

Experiments:
wild-type FKBP = wild-type FKBP (Homo sapiens, UniProt P62942); assay: Binding of bumped FKBP ligands to wild-type FKBP
From the text: (§1) AP21998 and AP22542 are ligands of FKBP that have particular utility for CAD applications, because they bind with high affinity to F36M-FKBP but poorly to the wild-type protein, and are thus anticipated to lead to minimal interactions with the endogenous proteins during in vivo applications. The design and assay of such “bumped” ligands that target a hole created by truncating FKBP residue Phe36 have been described (Clackson et al., Proc. Natl. Acad. Sci. USA 95:10437-10442, 1998).

F36M-FKBP = F36M-FKBP (Homo sapiens, UniProt P62942, F37M); assay: Binding of bumped FKBP ligands to F36M-FKBP
From the text: as §1

[1] = target: T1, F(36M)4-hIn-m3 fusion protein in implanted HT101-10p cells (Homo sapiens, UniProt P01308+P62942, F37M/H34D/K53R/L86R/R55K); assay: Regulated insulin secretion in vivo: serum insulin and glucose in STZ-treated mice implanted with HT101-10p cells; parameters: species or system male nu/nu mice
T1 construct: fusion of F(36M) domains to insulin results in a suppression of its secretion; expressed in transfected cells; host or cells: HT101-10p cells (HT1080 stably transfected), implanted intramuscularly into male nu/nu mice
Method: To test whether this system could be used to regulate secretion of insulin in vivo and effect changes in serum glucose levels, 2×10e7 HT101-10p cells were implanted intramuscularly into male nu/nu mice. HT101-10p cells were generated by stably transfecting HT1080 cells with a vector that drives expression of the F(36M)4-hIn-m3 fusion protein. Mice were made hyperglycemic by treatment 2 days earlier with 300 mg/kg streptozotocin (STZ). […] Approximately 1 hr after cells are implanted, animal received vehicle or the indicated dose of intravenous AP22542 (an analog of AP21998). Two hours later, serum samples were collected and assayed for insulin (Ultrasensitive human insulin-specific RIA, Linco) and glucose (Sigma) concentrations. […] In contrast, in animals treated with 10 mg/kg AP22542, serum insulin levels increase to ˜200 pM and serum glucose levels decline to ˜75 mg/dl.
To examine the kinetics of this ligand-induced reduction in serum glucose, STZ-treated mice implanted with 2×10e7 HT101-10p cells were administered a single dose of 30 mg/kg AP22542 intravenously. Serum glucose levels were measured at various times between 5 minutes and 10 hours later. […] This effect is transient as serum glucose levels rise to 350 mg/dl within 5 hours and return to baseline between 6 and 10 hours later. Since insulin secretion is dependent on the presence of the drug, administration of lower doses of AP22542 or of a ligand with a shorter half life should result in an even more transient production of secreted protein and resulting physiological effect. Conversely, administration of higher doses of AP22542 or of a ligand with a longer half life should result in a more prolonged production of secreted protein.

[2] = target: T2, F(36M)-hGH fusion protein in HT88 cells (stably transfected HT1080) (Homo sapiens, UniProt P01241+P62942, F37M); assay: Ligand-dependent hGH secretion from HT88 cells (radioimmunoassay); assay type: cell-based; settings: FIG. 5A
T2 construct: 4 copies of the F(36M) domain; expressed in transfected cells; host or cells: HT1080 human fibrosarcoma cells, stably transfected pool HT88
Method: A vector driving the expression of this fusion protein, under control of the strong constitutive enhancer from CMV, was transiently transfected into HT1080 cells, a human fibrosarcoma cell line. Following overnight incubation of cells in the absence of ligand, the medium was washed away and fresh medium added, with or without ligand. Two hours later, the amount of hGH secreted into the medium was determined by radioimmunoassay. […] In contrast, in the presence of ligand, the amount of hGH secreted was several hundred-fold greater.
Pools of clones stably transfected with the F(36M)-hGH fusion protein (HT88 pool) were analyzed as described for the transiently transfected cells. […] To determine the constitutive rate of hGH secretion, the amount of hGH secreted in the presence of ligand was measured from cells that had already been exposed to ligand for 15 hours. As shown in lane 3, the constitutive rate of secretion from the HT88 cell line was very similar to the rate of secretion from the HT89 cell line which had been stably transfected with the wild type hGH protein (lane 4). Thus, in the presence of ligand the F(36M) domains have no detectable “retention” activity. […] This steady state level of stored F(36M)-hGH fusion protein can persist for months in the cell line with no apparent toxic effect. […]

[3] = target: T3, F(36M)4-hIn-m3 fusion protein in HT1080 cells (Homo sapiens, UniProt P01308+P62942, F37M/H34D/K53R/L86R/R55K); assay: Regulated insulin secretion from transiently transfected HT1080 cells (C-peptide ELISA); assay type: cell-based; settings: increasing concentrations of ligand, 3 hours, FIG. 8
T3 construct: fusion of F(36M) domains to insulin results in a suppression of its secretion; expressed in transfected cells; host or cells: HT1080 cells, transient transfection
Method: A vector driving expression of this F(36M)-insulin fusion protein (F(36M)4-hIn-m3) was transiently transfected into HT1080 cells. For comparison, vectors driving the expression of insulin protein alone, with (hIn-m3) or without (hIn-wt) the three mutations were also transfected. Following overnight incubation of cells in the absence of ligand, the medium was washed away and fresh medium added, without or with increasing concentrations of the monomeric ligand, AP21998. Three hours later, the amount of insulin secreted into the medium was determined by ELISA using an assay that recognizes an epitope within the C-peptide (ALPCO).

[4] = 1 mg/kg intravenous, 2 hours after dose, hyperglycemic mice

T1 sequence (P62942+P01308 fused P62942:F37M/P01308:H34D/P01308:K53R/P01308:R55K/P01308:L86R): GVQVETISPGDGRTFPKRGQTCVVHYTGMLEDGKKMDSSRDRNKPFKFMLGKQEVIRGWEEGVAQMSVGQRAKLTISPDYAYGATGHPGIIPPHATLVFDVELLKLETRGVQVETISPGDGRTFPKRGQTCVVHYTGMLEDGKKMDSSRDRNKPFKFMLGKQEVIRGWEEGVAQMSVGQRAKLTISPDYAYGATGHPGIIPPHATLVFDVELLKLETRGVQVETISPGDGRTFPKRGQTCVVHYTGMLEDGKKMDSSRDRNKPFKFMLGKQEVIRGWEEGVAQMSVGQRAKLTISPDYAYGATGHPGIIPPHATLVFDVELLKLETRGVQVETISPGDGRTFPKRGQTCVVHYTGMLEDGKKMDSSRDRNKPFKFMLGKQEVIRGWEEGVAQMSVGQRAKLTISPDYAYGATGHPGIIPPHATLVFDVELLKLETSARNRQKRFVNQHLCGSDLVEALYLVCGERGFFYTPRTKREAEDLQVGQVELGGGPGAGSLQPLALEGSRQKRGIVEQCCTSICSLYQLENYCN
Sequence of wild-type FKBP (P62942 whole entry, the tested form may be a part): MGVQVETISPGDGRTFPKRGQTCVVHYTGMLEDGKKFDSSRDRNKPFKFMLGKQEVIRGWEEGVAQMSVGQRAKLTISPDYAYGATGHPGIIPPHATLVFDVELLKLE
Sequence of F36M-FKBP (P62942 whole entry F37M): as the sequence (P62942 whole entry, the tested form may be a part) above, with F37M counted along it
T2 sequence (P62942+P01241 fused P62942:F37M): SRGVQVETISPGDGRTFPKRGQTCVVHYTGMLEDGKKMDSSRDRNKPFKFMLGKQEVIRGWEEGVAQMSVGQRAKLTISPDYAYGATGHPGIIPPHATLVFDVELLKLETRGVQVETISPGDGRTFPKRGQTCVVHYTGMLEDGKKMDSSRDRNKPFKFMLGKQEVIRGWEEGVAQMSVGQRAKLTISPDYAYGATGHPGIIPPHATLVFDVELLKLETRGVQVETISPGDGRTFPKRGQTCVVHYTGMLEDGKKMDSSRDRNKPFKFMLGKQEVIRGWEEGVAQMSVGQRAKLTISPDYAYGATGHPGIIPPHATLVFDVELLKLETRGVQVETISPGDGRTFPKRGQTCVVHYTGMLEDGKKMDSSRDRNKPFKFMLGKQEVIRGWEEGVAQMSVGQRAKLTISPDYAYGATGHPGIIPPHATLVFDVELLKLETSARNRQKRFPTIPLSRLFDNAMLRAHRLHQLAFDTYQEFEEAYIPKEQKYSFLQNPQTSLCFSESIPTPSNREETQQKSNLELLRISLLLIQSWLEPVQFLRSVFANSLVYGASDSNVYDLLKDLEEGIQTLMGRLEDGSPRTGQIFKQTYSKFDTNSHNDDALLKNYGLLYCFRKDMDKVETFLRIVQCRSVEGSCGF
T3 sequence (P62942+P01308 fused P62942:F37M/P01308:H34D/P01308:K53R/P01308:R55K/P01308:L86R): as the sequence (P62942+P01308 fused P62942:F37M/P01308:H34D/P01308:K53R/P01308:R55K/P01308:L86R) above

CC[C@H](C(=O)N1CCCC[C@H]1C(=O)O[C@H](CCc1ccc(OC)c(OC)c1)c1cccnc1)c1cc(OC)c(OC)c(OC)c1 [AP22542, 1-[2(S)-(3,4,5-trimethoxyphenyl)-butyryl]-piperdine-2(S)-carboxylic acid, 3-(3,4-Dimethoxyphenyl)-1-pyridin-3-yl-propan-1(R)-ol ester]
binding to the wild-type protein (wild-type FKBP): poorly
binding to F36M-FKBP (F36M-FKBP): high affinity
serum glucose [1, 4]: no change in serum glucose
serum insulin levels [1, 4]: fails to increase serum insulin levels above the lower limit of detection
serum insulin levels ([1]; 10 mg/kg intravenous, 2 hours after dose): ~200 pM
serum glucose levels ([1]; 10 mg/kg intravenous, 2 hours after dose, STZ baseline ~350 mg/dl): ~75 mg/dL
serum glucose levels ([1]; 30 mg/kg intravenous single dose, 5 and 15 minutes after administration): indistinguishable from animals treated with vehicle
serum glucose levels ([1]; 30 mg/kg intravenous single dose, by two hours, initial levels nearly 500 mg/dl): 50 mg/dL
serum glucose ([1]; 30 mg/kg intravenous single dose, within 30 minutes): significant reduction in serum glucose
serum glucose levels ([1]; 30 mg/kg intravenous single dose, within 5 hours): 350 mg/dL

CC[C@H](C(=O)N1CCCCC1C(=O)O[C@H](CCc1ccc(OC)c(OC)c1)c1cccc(OCC(=O)NCCCN(C)C)c1)c1cc(OC)c(OC)c(OC)c1 (stereo partly drawn) [AP21998]
binding to the wild-type protein (wild-type FKBP): poorly
binding to F36M-FKBP (F36M-FKBP): high affinity
concentration giving peak level of hGH secretion [2]: 2 to 3 µM
EC50 ([2]; read-out: half-maximal secretion of hGH): 600 nM
insulin secretion into medium [3]: secretion is induced in the presence of monomer in a dose-dependent manner
